Laboratory results as given in ChEMBL document CHEMBL1201862, “PubChem BioAssay data set” (2004).
The source made the active and inactive calls.

Legend:
[1] = target: T1, Zinc finger protein mex-5 (Caenorhabditis elegans, UniProt Q9XUB2); assay: potency of MEX-5 RNA-binding blockers – biochemical, C. elegans, fluorescence polarization, dose response (AID 1960)
T1 sequence (Q9XUB2 whole entry): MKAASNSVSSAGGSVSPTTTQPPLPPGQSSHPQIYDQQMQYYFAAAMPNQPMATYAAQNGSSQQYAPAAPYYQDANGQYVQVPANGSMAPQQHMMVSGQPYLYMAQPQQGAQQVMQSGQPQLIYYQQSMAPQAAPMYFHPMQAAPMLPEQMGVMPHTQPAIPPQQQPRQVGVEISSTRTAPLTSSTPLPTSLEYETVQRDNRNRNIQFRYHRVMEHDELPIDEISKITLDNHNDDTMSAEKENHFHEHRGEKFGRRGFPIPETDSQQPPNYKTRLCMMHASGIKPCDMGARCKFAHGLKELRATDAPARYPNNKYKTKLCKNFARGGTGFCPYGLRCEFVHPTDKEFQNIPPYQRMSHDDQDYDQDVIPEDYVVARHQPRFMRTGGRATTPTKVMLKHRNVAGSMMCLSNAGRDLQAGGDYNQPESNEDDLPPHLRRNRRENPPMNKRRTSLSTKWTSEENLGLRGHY

[2] = target: T2, RNA-binding protein pos-1 (Caenorhabditis elegans, UniProt G5EF15); assay: disruptors of C. elegans POS-1 RNA interaction – biochemical, fluorescence polarization, dose response (AID 1964);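 further: purified POS-1 fused to maltose binding protein made in E. coli; potency of compounds blocking POS-1 binding to fluorescent RNA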
T2 sequence (G5EF15 whole entry): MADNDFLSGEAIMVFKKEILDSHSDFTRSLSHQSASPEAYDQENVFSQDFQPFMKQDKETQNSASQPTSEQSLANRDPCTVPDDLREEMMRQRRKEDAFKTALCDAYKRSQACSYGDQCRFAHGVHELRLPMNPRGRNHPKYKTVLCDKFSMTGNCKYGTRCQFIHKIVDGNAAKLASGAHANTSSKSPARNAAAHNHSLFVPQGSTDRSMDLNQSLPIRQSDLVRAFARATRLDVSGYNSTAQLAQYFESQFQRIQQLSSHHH

[3] = target: T3, Polyadenylate-binding protein 1 (Homo sapiens, UniProt P11940); assay: MLLE domain peptide-binding blockers, IC50 – biochemical, fluorescence polarization, FITC-PAM2 peptide, dose response (AID 602259); format: functional; details: read-out: IC50_Mean
T3 sequence (P11940 whole entry, the tested form may be a part): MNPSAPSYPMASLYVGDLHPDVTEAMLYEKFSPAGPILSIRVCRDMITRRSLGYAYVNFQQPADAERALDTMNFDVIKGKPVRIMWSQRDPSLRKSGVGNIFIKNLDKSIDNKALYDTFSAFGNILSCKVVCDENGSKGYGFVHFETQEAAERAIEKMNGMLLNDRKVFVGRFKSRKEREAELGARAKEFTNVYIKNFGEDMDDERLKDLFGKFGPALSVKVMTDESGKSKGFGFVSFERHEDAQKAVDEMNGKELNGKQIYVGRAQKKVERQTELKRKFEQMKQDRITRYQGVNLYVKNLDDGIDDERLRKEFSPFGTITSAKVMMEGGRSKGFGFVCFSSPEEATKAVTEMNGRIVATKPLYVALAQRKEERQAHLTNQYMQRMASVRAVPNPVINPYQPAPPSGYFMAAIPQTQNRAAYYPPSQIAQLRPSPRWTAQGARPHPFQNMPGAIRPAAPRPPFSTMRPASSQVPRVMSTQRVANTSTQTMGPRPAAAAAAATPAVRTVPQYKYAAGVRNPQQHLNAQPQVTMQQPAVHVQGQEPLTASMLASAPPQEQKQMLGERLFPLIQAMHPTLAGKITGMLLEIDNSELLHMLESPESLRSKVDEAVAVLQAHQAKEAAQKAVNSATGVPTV

[4] = target: T3, Polyadenylate-binding protein 1; assay: MLLE binding blockers, Cy5 peptide tracer – biochemical, fluorescence polarization, Cy5-PAM2 peptide, secondary, miRNA deadenylation inhibitor project, dose response (AID 602260); format: functional; details: read-out: IC50_Mean
[5] = target: Luciferin 4-monooxygenase (Photinus pyralis, UniProt P08659); assay: inhibition of purified Photinus pyralis luciferase – biochemical, luminescence, dose response (AID 1891)
Sequence of Luciferin 4-monooxygenase (P08659 whole entry): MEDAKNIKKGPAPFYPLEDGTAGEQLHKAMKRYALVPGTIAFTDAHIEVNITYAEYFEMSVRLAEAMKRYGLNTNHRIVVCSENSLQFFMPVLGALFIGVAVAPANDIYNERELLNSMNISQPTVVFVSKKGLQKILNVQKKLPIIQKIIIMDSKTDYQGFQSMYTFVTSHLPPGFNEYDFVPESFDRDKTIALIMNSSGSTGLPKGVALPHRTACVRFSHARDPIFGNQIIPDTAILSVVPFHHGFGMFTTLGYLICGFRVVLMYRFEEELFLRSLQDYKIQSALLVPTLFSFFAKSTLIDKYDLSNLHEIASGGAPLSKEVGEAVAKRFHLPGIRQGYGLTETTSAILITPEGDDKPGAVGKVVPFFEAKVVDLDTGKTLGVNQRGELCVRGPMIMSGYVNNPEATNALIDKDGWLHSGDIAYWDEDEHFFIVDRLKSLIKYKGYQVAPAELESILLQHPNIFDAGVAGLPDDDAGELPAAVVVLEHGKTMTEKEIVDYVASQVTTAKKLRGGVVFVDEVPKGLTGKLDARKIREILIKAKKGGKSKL

[6] = Luminescence Cell-Based Dose Confirmation HTS to Identify Inhibitors of Platelet Dense Granule Release. [Related pubchem assays: 1663 (Primary HTS), 1678 (Summary of Project)]; format: functional
Leucine aminopeptidase = target: T4, Leucine aminopeptidase (Plasmodium falciparum 3D7, UniProt Q8IL11); assay: P. falciparum M17LAP inhibitors, primary screen, biochemical, fluorogenic H-Leu-NHMec substrate, 1536-well (AID 1619); format: functional
T4 sequence (Q8IL11 whole entry): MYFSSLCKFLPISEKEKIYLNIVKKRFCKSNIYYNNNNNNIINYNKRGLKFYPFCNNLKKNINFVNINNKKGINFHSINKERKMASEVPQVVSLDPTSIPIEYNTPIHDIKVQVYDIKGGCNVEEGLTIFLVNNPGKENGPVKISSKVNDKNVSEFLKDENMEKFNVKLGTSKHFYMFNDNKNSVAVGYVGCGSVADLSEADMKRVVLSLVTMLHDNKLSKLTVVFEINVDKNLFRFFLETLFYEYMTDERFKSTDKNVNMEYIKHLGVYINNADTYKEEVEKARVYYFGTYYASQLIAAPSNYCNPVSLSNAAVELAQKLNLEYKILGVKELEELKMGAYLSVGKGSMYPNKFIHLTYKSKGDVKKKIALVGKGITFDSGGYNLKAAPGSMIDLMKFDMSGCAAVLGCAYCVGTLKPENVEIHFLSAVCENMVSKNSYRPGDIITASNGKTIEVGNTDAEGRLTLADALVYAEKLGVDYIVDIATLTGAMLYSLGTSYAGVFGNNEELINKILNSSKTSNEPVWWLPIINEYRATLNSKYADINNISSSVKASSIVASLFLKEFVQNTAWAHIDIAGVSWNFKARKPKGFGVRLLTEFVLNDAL

Prothrombin = Prothrombin (Homo sapiens, UniProt P00734); assay: Thrombin 1536 HTS Dose Response Confirmation. [Related pubchem assays: 1046 (Thrombin 1536 HTS; hits were confirmed in this assay)]; format: functional
[7] = NIH-3T3 fibroblast cytotoxicity, dose response, cytotoxicity control, cell-based, fluorescence, Alamar Blue, secondary assay (AID 2327); format: functional;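 further: NIH-3T3 mouse fibroblasts cultured with fluconazole at 8 µg/mL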
[8] = fluconazole-exposed Candida albicans growth modulators – fluorescence, retest, confirmation (AID 2467); format: functional, cell-based
Cytochrome P450 2C9 = Cytochrome P450 2C9 (Homo sapiens, UniProt P11712)
Sequence of Cytochrome P450 2C9 (P11712 whole entry): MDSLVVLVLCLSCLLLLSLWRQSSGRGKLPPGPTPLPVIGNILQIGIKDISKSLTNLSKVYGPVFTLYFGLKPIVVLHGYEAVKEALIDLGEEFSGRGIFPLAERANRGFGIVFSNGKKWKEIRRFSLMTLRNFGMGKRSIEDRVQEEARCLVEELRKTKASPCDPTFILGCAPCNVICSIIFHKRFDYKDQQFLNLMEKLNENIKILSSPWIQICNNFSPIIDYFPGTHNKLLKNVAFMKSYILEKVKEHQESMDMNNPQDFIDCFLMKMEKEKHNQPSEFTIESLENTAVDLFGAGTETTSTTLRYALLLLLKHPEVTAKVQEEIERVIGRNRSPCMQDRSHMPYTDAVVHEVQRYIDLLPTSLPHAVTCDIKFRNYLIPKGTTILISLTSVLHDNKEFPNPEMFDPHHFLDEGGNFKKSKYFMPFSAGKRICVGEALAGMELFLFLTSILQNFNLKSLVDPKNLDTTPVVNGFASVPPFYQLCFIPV

Cytochrome P450 2C19 = Cytochrome P450 2C19 (Homo sapiens, UniProt P33261); assay: Cytochrome panel assay with activity outcomes. Panel member name: p450-cyp2c19 Compounds with AC50 equal or less than 10 uM are considered active; format: functional; details: read-out: AC50
Sequence of Cytochrome P450 2C19 (P33261 whole entry): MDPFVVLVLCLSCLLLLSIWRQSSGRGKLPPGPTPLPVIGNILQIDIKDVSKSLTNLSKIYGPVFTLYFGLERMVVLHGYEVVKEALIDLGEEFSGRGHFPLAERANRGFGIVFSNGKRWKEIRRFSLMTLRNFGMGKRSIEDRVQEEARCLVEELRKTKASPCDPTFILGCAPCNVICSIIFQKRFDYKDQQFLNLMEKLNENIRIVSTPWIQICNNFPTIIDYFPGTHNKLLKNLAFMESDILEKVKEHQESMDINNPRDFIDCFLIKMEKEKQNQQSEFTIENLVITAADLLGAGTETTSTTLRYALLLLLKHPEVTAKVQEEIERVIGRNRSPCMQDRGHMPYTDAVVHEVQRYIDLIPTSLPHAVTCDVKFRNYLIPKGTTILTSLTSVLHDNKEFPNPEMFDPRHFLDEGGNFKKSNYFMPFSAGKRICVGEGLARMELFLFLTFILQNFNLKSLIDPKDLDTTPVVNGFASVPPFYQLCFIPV

Cytochrome P450 1A2 = target: T5, Cytochrome P450 1A2 (Homo sapiens, UniProt P05177);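 further: PubChem cytochrome P450 panel assay, CYP1A2 panel member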
T5 sequence (P05177 whole entry): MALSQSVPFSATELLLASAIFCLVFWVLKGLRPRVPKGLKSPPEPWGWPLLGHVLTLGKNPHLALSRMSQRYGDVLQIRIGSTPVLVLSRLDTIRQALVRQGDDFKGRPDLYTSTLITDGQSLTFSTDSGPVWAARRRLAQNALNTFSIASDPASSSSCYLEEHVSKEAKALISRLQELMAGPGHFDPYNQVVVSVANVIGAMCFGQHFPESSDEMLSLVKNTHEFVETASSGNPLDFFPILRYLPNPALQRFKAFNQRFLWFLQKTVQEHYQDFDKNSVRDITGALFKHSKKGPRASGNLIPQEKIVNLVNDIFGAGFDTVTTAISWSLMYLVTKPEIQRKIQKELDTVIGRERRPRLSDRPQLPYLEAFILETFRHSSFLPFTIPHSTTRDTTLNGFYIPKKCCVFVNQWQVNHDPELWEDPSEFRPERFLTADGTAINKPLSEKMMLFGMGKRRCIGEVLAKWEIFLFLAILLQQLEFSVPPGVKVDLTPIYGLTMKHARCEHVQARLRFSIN

[9] = non-specific 3'UTR reporter inhibition in Clone20-Shn3RL – cell-based, Renilla luciferase, cherry-picked, counter-screen for Shn3 inhibitor project, dose response (AID 624133); format: functional
Cytochrome P450 3A4 = Cytochrome P450 3A4 (Homo sapiens, UniProt P08684);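 further: CYP3A4 tested as one member of a cytochrome P450 panel screen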
Sequence of Cytochrome P450 3A4 (P08684 whole entry): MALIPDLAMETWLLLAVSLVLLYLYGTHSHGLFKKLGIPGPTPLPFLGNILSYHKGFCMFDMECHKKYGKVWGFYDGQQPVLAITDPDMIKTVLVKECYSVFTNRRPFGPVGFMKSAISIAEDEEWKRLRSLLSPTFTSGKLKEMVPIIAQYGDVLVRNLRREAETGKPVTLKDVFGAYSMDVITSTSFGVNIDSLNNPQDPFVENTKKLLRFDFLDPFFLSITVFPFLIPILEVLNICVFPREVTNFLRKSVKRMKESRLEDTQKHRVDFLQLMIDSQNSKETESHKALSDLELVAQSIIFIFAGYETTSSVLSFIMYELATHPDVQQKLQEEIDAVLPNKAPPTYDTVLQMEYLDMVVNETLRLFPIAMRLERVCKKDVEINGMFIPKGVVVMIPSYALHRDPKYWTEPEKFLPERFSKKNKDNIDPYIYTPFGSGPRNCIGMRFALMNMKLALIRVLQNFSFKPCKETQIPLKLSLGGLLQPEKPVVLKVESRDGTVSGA

[10] = reduction of Shn3 3'UTR-driven luciferase in osteoblasts – cell-based, Clone20 osteoblasts, firefly luciferase, cherry-picked, dose response (AID 624132); format: functional;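 further: firefly luciferase luminescence from reporter carrying the Shn3 3'UTR in osteoblasts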
Paired box protein Pax-8 = Paired box protein Pax-8 (Homo sapiens, UniProt Q06710); assay: PAX8 transcriptional activity inhibition in RMG-I – RMG-I cells, luciferase, cherry-pick, dose response (AID 687027); format: functional, cell-based;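 further: luciferase reporter driven by Pax8 target thyroperoxidase promoter measured by SteadyGlo luminescence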
Sequence of Paired box protein Pax-8 (Q06710 whole entry): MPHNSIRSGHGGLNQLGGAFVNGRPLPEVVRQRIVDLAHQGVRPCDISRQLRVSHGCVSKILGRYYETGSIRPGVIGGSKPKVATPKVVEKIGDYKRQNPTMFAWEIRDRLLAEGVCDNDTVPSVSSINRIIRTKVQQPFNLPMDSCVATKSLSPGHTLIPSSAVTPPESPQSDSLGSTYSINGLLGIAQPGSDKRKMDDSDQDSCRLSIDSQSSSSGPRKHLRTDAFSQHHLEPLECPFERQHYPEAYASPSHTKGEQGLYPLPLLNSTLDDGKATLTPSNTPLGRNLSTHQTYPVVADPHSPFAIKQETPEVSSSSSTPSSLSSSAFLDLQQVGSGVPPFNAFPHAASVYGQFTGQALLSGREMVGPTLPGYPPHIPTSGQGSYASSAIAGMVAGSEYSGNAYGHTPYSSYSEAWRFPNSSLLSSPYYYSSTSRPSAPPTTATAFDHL

[11] = intracellular Trypanosoma cruzi inhibitors in host cells – cell-based, plate reader, cherry-pick samples, set 3, dose response (AID 651818); format: functional;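 further: compounds incubated with infected cells for about four days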

c1ccc(C2=NNC(c3ccccn3)=NN2)nc1
EC50 [1]: 22.4 µM (active) | EC50 [2]: 25.3 µM (active) | IC50 [3]: > 66 µM (inactive) | IC50 [4]: > 66 µM (inactive)

O=C(c1ccc(Cl)cc1)C1CCCN(Cc2ccc(Oc3ncccn3)cc2)C1 (centres undefined)
EC50 [5]: > 112 µM (not active) | EC50 [6]: > 112 µM (not active)

Cc1ccc(NC(=O)CN2C(=O)N/C(=C/c3ccco3)C2=O)cc1
IC50 (Leucine aminopeptidase): 37.8 µM (active)

CC(C)c1nnc(NC(=O)c2cnccn2)s1
IC50 (Prothrombin): > 50 µM (not active)

Cc1cccc(NC(=O)CN2NS(=O)(=O)c3ccccc3C2=O)c1
IC50 (Leucine aminopeptidase): 7.74 µM (active)

CCn1c(O)nnc1Sc1nc(C)nc2scc(-c3cccs3)c12
EC50 [7]: > 160 µM (inactive) | EC50 [8]: 0.163 µM (active)

O=C(NNC(=S)NC(=O)c1ccccc1[N+](=O)[O-])c1ccc(Cl)cc1Cl
EC50 [7]: > 150 µM (inconclusive) | EC50 [8]: 4.09 µM (active)

O=C(O)C1CCCCC1C(=O)Nc1ccc(Cl)cc1Cl (centres undefined)
IC50 (Leucine aminopeptidase): 14.3 µM (active)

C[C@@H](CO)NC(=O)c1ccc2c3n(nc2c1)-c1ccccc1CO3
EC50 [5]: 16.4 µM (active) | EC50 [6]: 6.93 µM (active)

Nc1n[nH]c(N)c1N=Nc1cccc(F)c1
IC50 (Leucine aminopeptidase): 5.51 µM (active)

COc1ccc(NC(=O)CSc2[nH]c(=O)cc(C)c2C#N)cc1OC
IC50 (Leucine aminopeptidase): 16.2 µM (active)

Cc1ccc(C(=O)n2ncn(C)c2=S)cc1
IC50 (Prothrombin): 1.02 µM (active)

CSc1nc(-c2ccccc2)nn1C(=O)c1ccccc1
AC50 (Cytochrome P450 2C9): 10 µM (inconclusive) | AC50 (Cytochrome P450 2C19): 0.1 µM (inconclusive) | IC50 (Prothrombin): 0.896 µM (active) | AC50 (Cytochrome P450 1A2): 2.51 µM (inconclusive)

COc1ccc(CC(=O)n2nc(-c3ccccc3)nc2NCc2ccco2)cc1
IC50 (Prothrombin): 8.75 µM (active)

CCCOc1ccc(CNC(=O)c2ccc3c(c2)N(CC)CCS3)cc1
EC50 [5]: > 112 µM (not active) | EC50 [6]: > 112 µM (not active)

Cc1ccc[n+](-c2[nH]c(=O)sc2C=NNC(=O)c2ccccc2[O-])c1
EC50 [1]: 38.5 µM (active) | EC50 [2]: 42.4 µM (active) | IC50 [3]: 43.9 µM (inactive) | IC50 [4]: > 66 µM (inactive)

C#CCNc1cc(C)nc2ncnn12
IC50 (Prothrombin): > 50 µM (not active)

CCN(CC)S(=O)(=O)c1cccc(NC(=O)/C=C/c2cccc([N+](=O)[O-])c2)c1
IC50 (Prothrombin): > 50 µM (not active)

CC1COC(=O)C(NNc2ccc(Cl)c(Cl)c2)=N1 (centres undefined)
EC50 [7]: > 160 µM (inactive) | EC50 [8]: 2.17 µM (active)

CCCCCCC#Cc1ccc2c(c1)COc1c3ccccc3nn1-2
AC50 [9]: 7.68 µM (active)

COc1ccc(CNc2nc(-c3cccnc3)nn2C(=O)C(C)C)cc1
IC50 (Prothrombin): 0.167 µM (active)

Cc1cc(S(=O)(=O)N2CCCCC2)ccc1OCC(=O)Nc1ccccc1
EC50 [5]: > 112 µM (not active) | EC50 [6]: 19.7 µM (active)

COc1ccc(S(=O)(=O)N(C)CC(=O)Nc2ccc3c(c2)OCO3)cc1OC
EC50 [5]: > 112 µM (not active) | EC50 [6]: > 112 µM (not active)

CCOC(=O)CSc1n[nH]c(NC(=O)c2cccc(C)c2)n1
AC50 (Cytochrome P450 2C9): 25.1 µM (inconclusive) | IC50 (Prothrombin): 0.586 µM (active) | AC50 (Cytochrome P450 3A4): 5.62 µM (inconclusive)

CCC(C)(O)C(=O)OC1C(=O)OC2CC3C(C)=CC(=O)C(O)C3(C)C3C4(O)OCC23C1C(C)C4O (centres undefined)
AC50 [10]: 0.866 µM (active) | AC50 (Paired box protein Pax-8): 0.426 µM (active) | AC50 [9]: 5.79 µM (active)

C[C@H](CO)N1C[C@H](C)[C@@H](CN(C)Cc2ccc(C(=O)Nc3ccccc3N)cc2)Oc2c(NC(=O)c3ccc(-c4nccs4)cc3)cccc2C1=O
AC50 [11]: 2.85 µM (active)

C[C@@H]1CN([C@@H](C)CO)C(=O)Cc2cc(NC(=O)Nc3ccc4c(c3)OCO4)ccc2O[C@@H]1CN(C)Cc1ccc(-c2ccccc2)cc1
AC50 [11]: 4.26 µM (active)

C[C@H]1CN([C@@H](C)CO)C(=O)c2cccc(NS(=O)(=O)c3ccc(F)cc3)c2O[C@H]1CN(C)Cc1ccc(C(=O)Nc2ccccc2N)cc1
AC50 [11]: 3.43 µM (active)

C[C@@H]1CN([C@H](C)CO)C(=O)Cc2cc(NC(=O)Nc3ccc(F)cc3)ccc2O[C@H]1CN(C)Cc1ccc(Cl)c(Cl)c1
AC50 (Paired box protein Pax-8): 16.2 µM (active) | AC50 [11]: 4.44 µM (active)

C[C@H]1CN([C@@H](C)CO)C(=O)c2cccc(NC(=O)C3CCCCC3)c2O[C@@H]1CN(C)Cc1ccc(Oc2ccccc2)cc1
AC50 [11]: 4.77 µM (active)

C[C@H]1CN([C@@H](C)CO)C(=O)Cc2cc(NC(=O)Nc3ccc(C(F)(F)F)cc3)ccc2O[C@@H]1CN(C)Cc1ccc(-c2ccccc2)cc1
AC50 [11]: 3.1 µM (active)

C[C@H]1CN([C@@H](C)CO)C(=O)c2cccc(NC(=O)c3cnccn3)c2O[C@@H]1CN(C)Cc1ccc(C(=O)Nc2ccccc2N)cc1
AC50 [11]: 2.99 µM (active)

Cc1ccc(S(=O)(=O)N(C)C[C@@H]2Oc3c(NC(=O)Nc4ccc(C(F)(F)F)cc4)cccc3C(=O)N([C@H](C)CO)C[C@@H]2C)cc1
AC50 [11]: 5.16 µM (active)

CC(C)c1ccc(N(CC(=O)N/N=C/c2ccc(OC3CSC3)cc2)S(=O)(=O)c2ccccc2)cc1
IC50 (Prothrombin): > 50 µM (not active)

Cc1nn(-c2ccccc2)c(Cl)c1/C=N/NC(=O)c1[nH]ncc1Br
EC50 [5]: 0.374 µM (active) | EC50 [6]: 3.52 µM (active)

Nc1nnnn1/N=C/c1cccc(Oc2ccccc2)c1
EC50 [7]: > 150 µM (inactive) | EC50 [8]: > 38 µM (not active)

CCOC(=O)C1CCN(/C=N/c2cc(C)on2)CC1
EC50 [5]: > 112 µM (not active) | EC50 [6]: > 112 µM (not active)

CC[C@@H]1C=CC=CC[C@H](C)[C@@H](O)[C@@H](C)C(=O)[C@H](C)[C@@H](O)[C@H](C)C(=O)[C@H](C)[C@@H](O)[C@H](C)C=CC(=O)O[C@H]2[C@@H](C)[C@@H](CC1)O[C@@]1(CC[C@@H](C)[C@@H](C[C@H](C)O)O1)[C@@H]2C [OLIGOMYCIN C]
EC50 [7]: 15.6 µM (active) | EC50 [8]: 0.427 µM (active)
